Reference: publication PMC6882823, “Partitioning of amino acids and proteins into decanol using phase transfer agents towards understanding life in non-polar liquids” (Scientific Reports, 2019)

Experiments:
[1] = design: method as in PMID 7108955; conditions: amino acid residue; positive scores = higher hydrophobicity; cited from earlier work
[2] = Water/decanol phase partitioning with or without phase transfer agents; format: physicochemical
Experimental: Biomolecules were dissolved in ultrapure water (Millipore EMD, USA), containing decylsulfate and/or DDAB when noted. […] Final concentrations of phase transfer agents (PTAs) and amino acids were generally 10 mM unless noted otherwise for specific experiments. Proteins were generally diluted until their 280 nm absorbance was less than or equal to 1 AU.
(§1) Equal volumes of water phase (containing the biomolecule and PTA, if added) and decanol were mixed, vortexed for 30 s, then centrifuged for 3 minutes with a mini centrifuge. These samples were prepared in triplicate. Both decanol and aqueous phase were analyzed for biomolecules. Phenylalanine and proteins were analyzed using UV-vis (Hewlett-Packard 8453).
(§2) HPLC was performed with Cosmosil HILiC column (2.5 µm particle size, 3 × 100 mm; Nacalai USA) at 30 °C with a 1.0 mL/min flow rate, and isocratic elution of 25% 20 mM ammonium acetate, pH 7.5 and 75% acetonitrile (Optima, LC-MS purity, Fisher Scientific). Injection volume was 10 µL. For mass spectra collection, HESI heater temp was 50 °C, with a 4.5 kV spray, and 250 °C capillary temperature in positive ion mode.

[3] = Potassium ion binding of valinomycin in the decanol phase; conditions: decanol phase after partitioning against 100 mM KCl
Experimental: Ultra-pure Millipore grade (18.2 MΩ) water, 100 mM KCl or 100 mM AuCl were tested as aqueous phases. In all samples all of the valinomycin was found in the decanol phase (see SI for additional details).
as §1, §2

Molecule: N[C@@H](CCC(=O)O)C(=O)O [glutamic acid]
- Hydrophathy (hydropathy score of residue type) [1]: −3.5

Molecule: NCC(=O)O [glycine, Glycine]
- Hydrophathy (hydropathy score of residue type) [1]: −0.4

Molecule: N[C@@H](Cc1ccccc1)C(=O)O [phenylalanine, Phenylalanine]
- Hydrophathy (hydropathy score of residue type) [1]: 2.8
- phenylalanine partitioning into decanol, 1:1 PTA to phenylalanine, pH 7 ([2]; water/decanol, 10 mM phenylalanine, 1:1 ratio of PTA (DS and DDAB 1:1), pH 7 zwitterionic, UV-vis, n = 3): 15%
- phenylalanine entering the decanol phase, 1:10 PTA to phenylalanine ([2]; water/decanol, 10 mM phenylalanine, 1:10 ratio of PTA, all pHs (1.5 DS; 7.0 DS and DDAB; 10.0 DDAB), UV-vis, n = 3): about 10%

Molecule: Tpol: Taq DNA polymerase, UniProt P19821
- Tpol entering the decanol phase ([2]; water/decanol, no PTA or 5 mM of both DDAB and DS, UV-vis): About 10%

Molecule: valinomycin [reference compound]
- ability to bind potassium ions [3]: appeared to retain its biological ability to bind to potassium ions
- valinomycin found in the decanol phase ([2]; water/decanol, without PTAs, aqueous phase ultra-pure water, 100 mM KCl or 100 mM AuCl, LC-MS and UV 210 nm, three independent partitionings): all

B1: Bacteriorhodopsin: a membrane protein, soluble only in amphiphilic systems (protein, UniProt P02945 14-262, looked up)
Bacteriorhodopsin: QAQITGRPEWIWLALGTALMGLGTLYFLVKGMGVSDPDAKKFYAITTLVPAIAFTMYLSMLLGYGLTMVPFGGEQNPIYWARYADWLFTTPLLLLDLALLVDADQGTILALVGADGIMIGTGLVGALTKVYSYRFVWWAISTAAMLYILYVLFFGFTSKAESMRPEVASTFKVLRNVTVVLWSAYPVVWLIGSEGAGIVPLNIETLLFMVLDVSAKVGFGLILLRSRAIFGEAEAPEPSAGDGAAATSD
- behaviour of bacteriorhodopsin in partitioning experiments ([2]; water/decanol with DS and DDAB added, visual): aggregated at the interface between the water and oil phase
- solubility in water and decanol phases ([2]; without PTAs, appearing as crystals): insoluble in both the water and decanol phases
